According to US20050074777A1, “Novel cell-surface estrogen receptor and related compositions and methods” (priority 2002, published 2005):
pKd: −log10 of the molar value.

Key:
[1] = molecular target: ER-X (plasma-membrane estrogen binding site of P7 ERKO and wild-type neocortex); test: 3H-estradiol saturation binding to Percoll-purified neocortical plasma-membranes; parameters: species or system mouse; details: Percoll-purified plasma-membranes from P7 ERKO and wild-type neocortex, 50 μg/tube, 18 hours at 4° C.; read-out: equilibrium dissociation constant, Kd
Procedure: Binding of ^3H estradiol to Percoll®-purified plasma-membranes from P7 ERKO and wild-type mouse neocortex. (a) Identical amounts of membrane protein (50 μg/tube) were incubated with varying concentrations of ^3H estradiol (0.3-8 nM) for 18 hours at 4° C. The reaction was terminated by addition of hydroxylapatite (HAP). The membranes and HAP were sedimented by centrifugation in a microfuge, and the pellet washed 4 times to remove free steroid. Radioactivity in the pellets was extracted with ethanol and counted. […] (b) Specificity of the binding site in Percoll®-purified membranes from P7 ERKO mouse neocortex. […] Bound ^3H estradiol was separated by sedimentation with HAP and counted at an efficiency of 50%. Data represent the number of bound counts (after subtraction of HAP-only blank control tubes, containing no membrane protein) expressed as the means +/-S.D. of triplicate determinations. The horizontal dashed line indicates the level of non-specific binding observed in the presence of 1 μM DES. Caveolar-like membrane (CLM) preparation. Membrane fractions were prepared by adapting the detergent-free method of Smart et al. (Smart, 1995). […] The ethanol supernatants were transferred to liquid scintillation fluid (5 ml) and counted. […] Specific binding was calculated by subtracting non-specific from total binding.

[2] = tested on: estrogen-binding protein (ER-X); test: DES-sensitive 3H-estradiol binding in CLM preparations and lysates; parameters: species or system mouse
Procedure: Caveolar-like membrane (CLM) preparation. Membrane fractions were prepared by adapting the detergent-free method of Smart et al. (Smart, 1995). Briefly, pools of 40-50 P7 ERKO neocortices were homogenized in 20 mM Tricine, pH 7.8 buffer, containing 1 mM EDTA, 0.25M sucrose and 1 mM dithiothreitol (TESD buffer), then centrifuged at 1000×g at 4° C. for 10 minutes. The pellet was resuspended in TESD buffer, re-centrifuged, and the supernatants pooled. The combined supernatants were subjected to Percoll® gradient fractionation in the same buffer to isolate the plasma membrane fraction. In some binding experiments (indicated below), Percoll® purified plasma membranes were used without further fractionation. For preparation of CLMs, plasma-membranes were sonicated and further separated by centrifugation on a linear 20% to 10% OptiPrep (iodixanol) gradient (Nycomed Pharma AS, Oslo, Norway). Based upon their light buoyant density, CLMs were separated and purified from non-CLMs using two OptiPrep density gradients. […] Electrophoretically separated CLMs on PVDF membranes were probed with antibodies specific for ER-α ([…], UBI; MC20, Santa Cruz), ER-β (Zymed), flotillin (BD Transduction Labs) and other caveolar-resident proteins (PKC-α and PKC-γ, BD Transduction Labs) and non-caveolar-resident proteins (paxillin, BD Transduction Labs). Estrogen binding assay. Duplicate aliquots of 1 mg each of protein lysate from ERKO P7 neocortex or wild-type adult uterus were pre-cleared for 30 minutes using anti-rabbit-IgG-coated magnetic beads (Dynal AS). Pre-cleared protein lysates were immunoprecipitated with anti-ER-α antibodies (6F11, Novocastra; or MC20, Santa Cruz) at 4° C. overnight. […] NEN Life Sciences, Boston, Mass.) at 4° C. for 18 hours. The incubation was terminated by adsorption of the binding sites onto an equal volume of hydroxylapatite (HAP) slurry in TESD buffer. HAP pellets were washed four times with Tris-buffered saline containing 0.2% Tween-20 buffer and extracted with 1 ml absolute ethanol overnight at room temperature. The ethanol supernatants were transferred to liquid scintillation fluid (5 ml) and counted. Control tubes, used in assessing HAP adsorption of free steroid, contained HAP and the same buffer constituents, without addition of the membranes. Non-specific binding was assayed in the membranes using the same amount of radioactive ligand plus 200-fold molar excess of unlabeled diethylstilbestrol (DES) (Sigma-Aldrich). Specific binding was calculated by subtracting non-specific from total binding.

pKd [1]: ~8.80
DES-sensitive estrogen binding ([2]; P7 ERKO neocortical lysates): 9.94 fmol/mg lysate protein
DES-sensitive estrogen binding ([2]; neocortical CLM preparations from P7 ERKO mice, 10 nM 3H-estradiol): 282.12 fmol/mg CLM protein
DES-sensitive estrogen binding ([2]; wild-type adult uterine lysates): 38.85 fmol/mg lysate protein
SMILES: C[C@]12CC[C@@H]3c4ccc(O)cc4CC[C@H]3[C@@H]1CC[C@@H]2O [^3H-estradiol, 2,4,6,7, 16, 17-^3H estradiol]
